Where two headings read alike, the source gives them in different places.
Tests used:
melatonin Mel1a receptor = target: T1, melatonin Mel1a receptor (Homo sapiens, UniProt P48039); test: IP accumulation, melatonin Mel1a receptor coexpressed with Gα subunit in COS-7; format: cell-based; details: 1 μM 2-iodomelatonin; for IP Formation % Res.: relative to basal
T1 construct: expressed in transfected cells; host or cells: COS-7

melatonin Mel1c receptor = target: T2, melatonin Mel1c receptor (Xenopus laevis, UniProt P49219); test: IP accumulation, melatonin Mel1c receptor coexpressed with Gα subunit in COS-7; format: cell-based; details: for IP Formation Agonist / IP Formation % Res.: 1 μM 2-iodomelatonin; for IP Formation % Res.: relative to basal
T2 construct: expressed in transfected cells; host or cells: COS-7
T2 sequence (P49219 1-420): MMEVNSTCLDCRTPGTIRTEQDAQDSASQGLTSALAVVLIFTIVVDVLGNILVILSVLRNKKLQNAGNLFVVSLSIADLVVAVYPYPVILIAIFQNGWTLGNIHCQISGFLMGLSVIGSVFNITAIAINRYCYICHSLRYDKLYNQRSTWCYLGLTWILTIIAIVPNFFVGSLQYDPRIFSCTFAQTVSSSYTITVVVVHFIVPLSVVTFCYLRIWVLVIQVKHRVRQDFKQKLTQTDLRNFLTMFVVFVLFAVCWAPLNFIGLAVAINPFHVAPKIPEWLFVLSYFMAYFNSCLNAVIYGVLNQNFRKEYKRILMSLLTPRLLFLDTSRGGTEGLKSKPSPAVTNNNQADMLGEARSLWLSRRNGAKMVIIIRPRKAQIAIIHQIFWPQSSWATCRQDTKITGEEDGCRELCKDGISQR

melatonin Mel1b receptor = target: T3, melatonin Mel1b receptor (Homo sapiens, UniProt P49286); test: IP accumulation, melatonin Mel1b receptor coexpressed with Gα subunit in COS-7; format: cell-based; details: 1 μM 2-iodomelatonin; for IP Formation % Res.: relative to basal
T3 construct: expressed in transfected cells; host or cells: COS-7
T3 sequence (P49286 1-362): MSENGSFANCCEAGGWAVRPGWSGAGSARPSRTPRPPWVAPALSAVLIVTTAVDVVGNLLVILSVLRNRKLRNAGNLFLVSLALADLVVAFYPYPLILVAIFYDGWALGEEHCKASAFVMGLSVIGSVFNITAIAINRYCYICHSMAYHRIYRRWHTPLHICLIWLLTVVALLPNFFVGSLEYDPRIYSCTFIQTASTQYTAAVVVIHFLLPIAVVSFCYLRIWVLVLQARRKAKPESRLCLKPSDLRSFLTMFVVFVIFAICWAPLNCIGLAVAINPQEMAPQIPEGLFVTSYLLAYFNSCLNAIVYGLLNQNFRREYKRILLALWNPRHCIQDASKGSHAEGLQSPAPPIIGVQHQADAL

α2-adrenergic receptor = details: 1 μM UK14,304; for IP Formation % Res.: relative to basal
complement C5a receptor [1] = target: complement C5a receptor
[2] = target: formyl peptide (fMLP) receptor
δ-opioid receptor = target: T4, δ-opioid receptor (Homo sapiens, UniProt P41143); test: IP accumulation, δ-opioid receptor coexpressed with Gα subunit in COS-7; format: cell-based; details: for IP Formation Agonist / IP Formation % Res.: 100 nM DPDPE; for IP Formation % Res.: relative to basal; for stimulation of IP formation: 100 nM
T4 construct: expressed in transfected cells; host or cells: COS-7
T4 sequence (P41143 whole entry): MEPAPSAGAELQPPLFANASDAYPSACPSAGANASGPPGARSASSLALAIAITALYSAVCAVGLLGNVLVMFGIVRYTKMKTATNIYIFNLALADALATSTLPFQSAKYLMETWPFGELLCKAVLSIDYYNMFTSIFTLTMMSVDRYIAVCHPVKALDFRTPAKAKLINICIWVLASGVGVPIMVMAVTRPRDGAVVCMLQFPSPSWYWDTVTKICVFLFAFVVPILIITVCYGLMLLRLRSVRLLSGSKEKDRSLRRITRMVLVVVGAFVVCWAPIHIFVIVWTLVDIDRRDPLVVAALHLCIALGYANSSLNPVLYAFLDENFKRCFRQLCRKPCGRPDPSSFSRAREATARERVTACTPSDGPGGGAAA

complement C5a receptor [3] = target: T5, complement C5a receptor (Homo sapiens, UniProt P21730); test: IP accumulation, complement C5a receptor coexpressed with Gα subunit in COS-7; format: cell-based; details: 100 nM C5a; for IP Formation % Res.: relative to basal
T5 construct: expressed in transfected cells; host or cells: COS-7
T5 sequence (P21730 1-350): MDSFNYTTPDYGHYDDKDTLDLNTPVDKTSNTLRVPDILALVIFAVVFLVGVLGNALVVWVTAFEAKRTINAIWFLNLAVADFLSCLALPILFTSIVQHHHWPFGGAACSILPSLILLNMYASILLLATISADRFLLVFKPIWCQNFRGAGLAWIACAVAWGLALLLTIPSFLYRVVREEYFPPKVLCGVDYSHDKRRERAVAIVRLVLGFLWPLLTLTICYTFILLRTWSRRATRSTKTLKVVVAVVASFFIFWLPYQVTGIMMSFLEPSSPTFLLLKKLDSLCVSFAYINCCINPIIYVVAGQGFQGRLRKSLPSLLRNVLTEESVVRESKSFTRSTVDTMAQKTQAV

[4] = COS-7, receptor + 16z25 chimera
[5] = COS-7, receptor + 16z44 chimera

T1 sequence (P48039 whole entry): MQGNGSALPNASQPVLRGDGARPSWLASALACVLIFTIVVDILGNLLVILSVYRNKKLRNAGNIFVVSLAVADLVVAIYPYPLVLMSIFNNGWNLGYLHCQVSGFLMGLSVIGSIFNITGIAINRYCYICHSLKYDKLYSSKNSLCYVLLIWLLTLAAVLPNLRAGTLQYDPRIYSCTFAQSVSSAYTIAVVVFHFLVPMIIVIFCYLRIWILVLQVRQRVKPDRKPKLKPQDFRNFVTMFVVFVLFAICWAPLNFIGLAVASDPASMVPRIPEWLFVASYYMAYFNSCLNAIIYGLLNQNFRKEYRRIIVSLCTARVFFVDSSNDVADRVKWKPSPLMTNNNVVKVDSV

COc1ccc2[nH]c(I)c(CCNC(C)=O)c2c1 [2-iodomelatonin]
IP Formation Agonist (melatonin Mel1a receptor; [4]): 80.4 ± 4.0 | IP Formation % Res. (melatonin Mel1a receptor; [4]): 150% | IP Formation Agonist (melatonin Mel1a receptor; [5]): 91.9 ± 8.8 | IP Formation % Res. (melatonin Mel1a receptor; [5]): 171% | IP Formation Agonist (melatonin Mel1a receptor; COS-7, receptor + Gα16): 45.6 ± 6.0 | IP Formation % Res. (melatonin Mel1a receptor; COS-7, receptor + Gα16): 296% | EC50 (melatonin Mel1c receptor; COS-7, Mel1c + 16z44, read-out: EC50, formation of IP): ~0.4 nM | stimulation of PLC activity (melatonin Mel1c receptor; COS-7, Mel1c + Gα16, 0.03-100 nM): did not stimulate PLC activity | IP Formation Agonist (melatonin Mel1c receptor; [4]): 42.5 ± 6.7 | IP Formation % Res. (melatonin Mel1c receptor; [4]): 270% | IP Formation Agonist (melatonin Mel1c receptor; [5]): 86.8 ± 7.0 | IP Formation % Res. (melatonin Mel1c receptor; [5]): 307% | IP Formation % Res. (melatonin Mel1c receptor; COS-7, receptor + Gα16): 115% | IP Formation Agonist (melatonin Mel1b receptor; [4]): 108.3 ± 3.6 | IP Formation % Res. (melatonin Mel1b receptor; [4]): 155% | IP Formation Agonist (melatonin Mel1b receptor; [5]): 113.2 ± 7.3 | IP Formation % Res. (melatonin Mel1b receptor; [5]): 177% | IP Formation Agonist (melatonin Mel1b receptor; COS-7, receptor + Gα16): 31.7 ± 2.3 | IP Formation % Res. (melatonin Mel1b receptor; COS-7, receptor + Gα16): 195%

Brc1c(NC2=NCCN2)ccc2nccnc12 [UK14,304]
IP Formation Agonist (α2-adrenergic receptor; [4]): 116.1 ± 8.8 | IP Formation % Res. (α2-adrenergic receptor; [4]): 365% | IP Formation Agonist (α2-adrenergic receptor; [5]): 126.7 ± 1.5 | IP Formation % Res. (α2-adrenergic receptor; [5]): 297% | IP Formation Agonist (α2-adrenergic receptor; COS-7, receptor + Gα16): 107.4 ± 9.6 | IP Formation % Res. (α2-adrenergic receptor; COS-7, receptor + Gα16): 730%

C5a (ligand)
IP formation with agonist (cells coexpressing 16z44) (IP formation (unit not given)) (complement C5a receptor [1]): 87.4

N-formylmethionyl-leucyl-phenylalanine (peptide)
IP formation with agonist (cells coexpressing 16z44) (IP formation (unit not given)) [2]: 91.6

[D-Ala^2,N-Me-Phe^4,Gly^5-ol]enkephalin (peptide)
IP formation with agonist (cells coexpressing 16z44) (IP formation (unit not given)) (µ-opioid receptor): 68.5

[D-Pen^2,D-Pen^5]enkephalin [DPDPE]
IP Formation Agonist (δ-opioid receptor; [4]): 66.8 ± 7.1 | IP Formation % Res. (δ-opioid receptor; [4]): 287% | IP Formation Agonist (δ-opioid receptor; [5]): 121.8 ± 9.1 | IP Formation % Res. (δ-opioid receptor; [5]): 548% | IP Formation Agonist (δ-opioid receptor; COS-7, receptor + Gα16): 42.2 ± 6.1 | IP Formation % Res. (δ-opioid receptor; COS-7, receptor + Gα16): 417% | maximal stimulation, 16z44-mediated relative to Gα16-mediated response (δ-opioid receptor; COS-7, δ-opioid receptor): twice that of the Gα16-mediated response | DPDPE response (IP formation) (δ-opioid receptor; COS-7, δ-opioid receptor + 16z3, 16z6 or 16z66): failed to mediate the DPDPE response | IP formation (δ-opioid receptor; COS-7, δ-opioid receptor + 30z16): doubled the IP formation | response to agonist-activated δ-opioid receptor (IP formation) (δ-opioid receptor; COS-7, δ-opioid receptor + 30z16z66): unable to respond | stimulation of IP formation (δ-opioid receptor; COS-7 coexpressing Gα16 and δ-opioid receptor): 3 fold | stimulation of IP formation (δ-opioid receptor; COS-7 coexpressing δ-opioid receptor with either 16z25 or 16z44): 3-4.5 folds | formation of IP (δ-opioid receptor; COS-7 cotransfected with δ-opioid receptor and Gαz, agonist treatment): failed to evoke formation of IP

vasopressin (peptide)
IP formation with agonist (cells coexpressing 16z44) (IP formation (unit not given)) (vasopressin V2 receptor): 59.8

B1: C5a: complement C5a, agonist of the C5a receptor (protein, UniProt P01031 678-751, looked up)
C5a anaphylatoxin: TLQKKIEEIAAKYKHSVVKKCCYDGACVNNDETCEQRAARISLGPRCIKAFTECCVVASQLRANISHKDMQLGR
modifications: C5a anaphylatoxin
notes: complement C5a, agonist of the C5a receptor
IP Formation Agonist (complement C5a receptor [3]; [4]): 79.6 ± 6.5 | IP Formation % Res. (complement C5a receptor [3]; [4]): 432% | IP Formation Agonist (complement C5a receptor [3]; [5]): 87.4 ± 7.2 | IP Formation % Res. (complement C5a receptor [3]; [5]): 457% | IP Formation Agonist (complement C5a receptor [3]; COS-7, receptor + Gα16): 67.5 ± 8.1 | IP Formation % Res. (complement C5a receptor [3]; COS-7, receptor + Gα16): 608%
